In patent US5182265A, “Pharmacologically active peptide derivatives and pharmaceutical preparations containing them” (SPA Societa' Prodotti Antibiotici S.p.A., priority 1989, dated 1993):
Where a name gives a salt, the structure may show the parent alone. Where a SMILES comes first, the peptide text is derived from it.

Assay: Water solubility of the salts (qualitative remark in the preparation)
Assay type: physicochemical
Conditions: qualitative description of the isolated salt
Experimental: H-Thr-Asp-D-Tyr-OH is dissolved in 5 volumes of water, and the solution is added with an equivalent amount of 1N HCl.
The solution is concentrated to small volume under vacuum and added with acetone.

water solubility of the isolated powder | SMILES
freely water soluble | C[C@@H](O)[C@H](N)C(=O)N[C@@H](CC(=O)O)C(=O)N[C@@H](Cc1ccc(O)cc1)C(=O)O [H-Thr-Asp-Tyr-OH lysine salt] (H-Thr-Asp-Tyr-OH)
very water soluble | C[C@@H](O)[C@H](N)C(=O)N[C@@H](CC(=O)O)C(=O)N[C@H](Cc1ccc(O)cc1)C(=O)O [H-Thr-Asp-D-Tyr-OH hydrochloride] (HELM PEPTIDE1{T.D.[dY]}$$$$V2.0)
